What was measured:
ER-α in MCF-7 cells = target: T1, ER-α in MCF-7 cells (Homo sapiens, UniProt P03372); experiment: Breast Cancer Cell ER-α In Cell Western Assay (SP1); format: cell-based; settings: 4 or 24 hr post compound addition; for Emax: MCF7, SP1 antibody, read-out: ER-α In Cell Western Assay (SP1) Max Response; for DC50: SP1 antibody, read-out: ER-α In Cell Western Assay (SP1) IC50
T1 construct: endogenous in cells; host or cells: MCF-7
T1 sequence (P03372 1-595): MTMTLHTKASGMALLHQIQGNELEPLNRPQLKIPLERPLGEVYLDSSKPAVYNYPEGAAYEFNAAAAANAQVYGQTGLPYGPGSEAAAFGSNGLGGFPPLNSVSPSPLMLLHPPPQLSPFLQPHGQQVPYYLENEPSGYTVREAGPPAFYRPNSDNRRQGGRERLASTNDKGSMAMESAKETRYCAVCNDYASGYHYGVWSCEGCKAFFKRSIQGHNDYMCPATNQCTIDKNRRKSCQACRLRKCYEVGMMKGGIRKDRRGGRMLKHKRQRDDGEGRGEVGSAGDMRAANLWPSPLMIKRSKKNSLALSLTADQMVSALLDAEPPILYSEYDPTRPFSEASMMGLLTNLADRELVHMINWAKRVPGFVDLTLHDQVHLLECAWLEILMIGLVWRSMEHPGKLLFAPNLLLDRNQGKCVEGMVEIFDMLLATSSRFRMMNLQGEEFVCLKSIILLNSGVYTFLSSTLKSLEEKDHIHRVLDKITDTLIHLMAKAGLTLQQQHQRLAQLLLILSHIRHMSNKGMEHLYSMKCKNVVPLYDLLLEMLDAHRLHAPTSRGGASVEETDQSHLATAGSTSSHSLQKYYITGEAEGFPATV
How it was run: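 MCF-7 cells in charcoal-stripped FBS medium, treated with 11-point semilog dilutions (0.3–0.000003 μM final) for 4 or 24 h. Fixed cells immunostained with SP1 antibody (800 nm) and DRAQ5 DNA (700 nm); ER/DNA ratio expressed as % of untreated cells.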

MCF-7 cells = experiment: Breast Cancer Cell Viability Assays (MCF-7, CellTiter-Glo); format: cell-based; settings: 5 days' compound exposure; for IC50: Homo sapiens, MCF7, 120 h
How it was run: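 MCF-7 cells (320/well, RPMI with 10% FBS) exposed for 5 days to an eleven-point semilog series, 0.3–0.000003 μM final. Viability read by CellTiter-Glo luminescence, expressed as background-corrected percent of untreated cells.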

SMILES	Emax (ER-α in MCF-7 cells) [%]	DC50 (ER-α in MCF-7 cells) [nM]	MCF7 Viability Assay Max Response (MCF-7 cells)	IC50 (MCF-7 cells) [nM]
O=C(O)/C=C/c1ccc(/C(=C(\c2ncc(Cl)cc2Cl)C2CCC2)c2ccc3[nH]nc(F)c3c2)cc1 [Example 146, (E)-3-(4-((E)-2-Cyclobutyl-2-(3,5-dichloropyridin-2-yl)-1-(3-fluoro-1H-indazol-5-yl)vinyl)phenyl)acrylic acid]	≥ 40	≤ 100	++ (++ = a single % value ≧ 40%)	≤ 100
COc1cccc(/C(=C(\c2ccc(/C=C/C(=O)O)cc2)c2ccc3[nH]nc(F)c3c2)C2CCC2)n1 [Example 147, (E)-3-(4-((E)-2-Cyclobutyl-1-(3-fluoro-1H-indazol-5-yl)-2-(6-methoxypyridin-2-yl)vinyl)phenyl)acrylic acid]	≥ 40	≤ 100	++ (++ = a single % value ≧ 40%)	≤ 100
N#Cc1n[nH]c2ccc(/C(=C(/c3ccccc3)C3CCC3)c3ccc(/C=C/C(=O)O)cc3)cc12 [Example 148, (E)-3-(4-((E)-1-(3-Cyano-1H-indazol-5-yl)-2-cyclobutyl-2-phenylvinyl)phenyl)acrylic acid]	≥ 40	≤ 100	++ (++ = a single % value ≧ 40%)	≤ 100
Cc1sccc1/C(=C(\c1ccc(/C=C/C(=O)O)cc1)c1ccc2[nH]nc(F)c2c1)C1CCC1 [Example 149, (E)-3-(4-((E)-2-Cyclobutyl-1-(3-fluoro-1H-indazol-5-yl)-2-(2-methylthiophen-3-yl)vinyl)phenyl)acrylic acid]	≥ 40	≤ 100	++ (++ = a single % value ≧ 40%)	≤ 100
Cc1cc(/C(=C(\c2ccc(/C=C/C(=O)O)cc2)c2ccc3[nH]nc(F)c3c2)C2CCC2)c(C)s1 [Example 150, (E)-3-(4-((E)-2-Cyclobutyl-2-(2,5-dimethylthiophen-3-yl)-1-(3-fluoro-1H-indazol-5-yl)vinyl)phenyl)acrylic acid]	≥ 40	≤ 100	++ (++ = a single % value ≧ 40%)	≤ 100
CC/C(=C(/c1ccc(/C=C/C(=O)O)cc1)c1ccc2[nH]ncc2c1)c1ccc(C#N)cc1F [Example 151, (E)-3-(4-((E)-2-(4-Cyano-2-fluorophenyl)-1-(1H-indazol-5-yl)but-1-en-1-yl)phenyl)acrylic acid]	≥ 40	≤ 100	++ (++ = a single % value ≧ 40%)	≤ 100
O=C(O)/C=C/c1ccc(/C(=C(\c2ccc(F)cc2Cl)C2CC2)c2ccc3[nH]nc(F)c3c2)cc1 [Example 152, (E)-3-(4-((E)-2-(2-Chloro-4-fluorophenyl)-2-cyclopropyl-1-(3-fluoro-1H-indazol-5-yl)vinyl)phenyl)acrylic acid]	≥ 40	≤ 100	++ (++ = a single % value ≧ 40%)	≤ 100
O=C(O)/C=C/c1ccc(/C(=C(\c2ccccc2Cl)C2CC2)c2ccc3[nH]nc(F)c3c2)cc1 [Example 153, (E)-3-(4-((E)-2-(2-Chlorophenyl)-2-cyclopropyl-1-(3-fluoro-1H-indazol-5-yl)vinyl)phenyl)acrylic acid]	≥ 40	≤ 100	++ (++ = a single % value ≧ 40%)	≤ 100
O=C(O)/C=C/c1ccc(/C(=C(\c2ccccc2F)C2CC2)c2ccc3[nH]nc(F)c3c2)cc1 [Example 154, (E)-3-(4-((E)-2-Cyclopropyl-1-(3-fluoro-1H-indazol-5-yl)-2-(2-fluorophenyl)vinyl)phenyl)acrylic acid]	≥ 40	≤ 100	++ (++ = a single % value ≧ 40%)	≤ 100
N#Cc1cc(F)ccc1/C(=C(\c1ccc(/C=C/C(=O)O)cc1)c1ccc2[nH]nc(F)c2c1)C1CC1 [Example 155, (E)-3-(4-((E)-2-(2-Cyano-4-fluorophenyl)-2-cyclopropyl-1-(3-fluoro-1H-indazol-5-yl)vinyl)phenyl)acrylic acid]	≥ 40	≤ 100	++ (++ = a single % value ≧ 40%)	≤ 100
N#Cc1ccc(/C(=C(\c2ccc(/C=C/C(=O)O)cc2)c2ccc3[nH]nc(F)c3c2)C2CC2)c(F)c1 [Example 156, (E)-3-(4-((E)-2-(4-Cyano-2-fluorophenyl)-2-cyclopropyl-1-(3-fluoro-1H-indazol-5-yl)vinyl)phenyl)acrylic acid]	≥ 40	≤ 100	++ (++ = a single % value ≧ 40%)	≤ 100
O=C(O)/C=C/c1ccc(/C(=C(\c2ccncc2Cl)C2CC2)c2ccc3[nH]nc(F)c3c2)cc1 [Example 157, (E)-3-(4-((E)-2-(3-Chloropyridin-4-yl)-2-cyclopropyl-1-(3-fluoro-1H-indazol-5-yl)vinyl)phenyl)acrylic acid]	≥ 40	≤ 100	++ (++ = a single % value ≧ 40%)	≤ 100
COc1cnc(/C(=C(\c2ccc(/C=C/C(=O)O)cc2)c2ccc3[nH]nc(F)c3c2)C2CC2)c(C)c1 [Example 158, (E)-3-(4-((E)-2-Cyclopropyl-1-(3-fluoro-1H-indazol-5-yl)-2-(5-methoxy-3-methylpyridin-2-yl)vinyl)phenyl)acrylic acid]	≥ 40	≤ 100	++ (++ = a single % value ≧ 40%)	≤ 100
O=C(O)/C=C/c1cnc(/C(=C(\c2ccccc2)C2CCC2)c2ccc3[nH]nc(F)c3c2)cn1 [Example 159, (E)-3-(5-((Z)-2-Cyclobutyl-1-(3-fluoro-1H-indazol-5-yl)-2-phenylvinyl)pyrazin-2-yl)acrylic acid]	≥ 40	≤ 100	++ (++ = a single % value ≧ 40%)	≤ 100
O=C(O)/C=C/c1ccc(/C(=C(\c2ccccc2)C2CCC2)c2ccc3[nH]nc(F)c3c2)nc1 [Example 160, (E)-3-(6-((Z)-2-Cyclobutyl-1-(3-fluoro-1H-indazol-5-yl)-2-phenylvinyl)pyridin-3-yl)acrylic acid]	≥ 40	≤ 100	++ (++ = a single % value ≧ 40%)	≤ 100
O=C(O)/C=C/c1ncc(/C(=C(\c2ccccc2)C2CCC2)c2ccc3[nH]nc(F)c3c2)cc1F [Example 161, (E)-3-(5-((Z)-2-Cyclobutyl-1-(3-fluoro-1H-indazol-5-yl)-2-phenylvinyl)-3-fluoropyridin-2-yl)acrylic acid]	≥ 40	≤ 100	++ (++ = a single % value ≧ 40%)	≤ 100
O=C(O)/C=C/c1ncc(/C(=C(\c2ccccc2)C2CCC2)c2ccc3[nH]nc(F)c3c2)cn1 [Example 162, (E)-3-(5-((Z)-2-Cyclobutyl-1-(3-fluoro-1H-indazol-5-yl)-2-phenylvinyl)pyrimidin-2-yl)acrylic acid]	≥ 40	> 100	++ (++ = a single % value ≧ 40%)	> 100
CC/C(=C(/c1ccc(/C=C/C(=O)O)cc1)c1cccc2[nH]nc(F)c12)c1ccc(F)cc1Cl [Example 163, (E)-3-(4-((E)-2-(2-Chloro-4-fluorophenyl)-1-(3-fluoro-1H-indazol-4-yl)but-1-en-1-yl)phenyl)acrylic acid]	≥ 40	≤ 100	++ (++ = a single % value ≧ 40%)	≤ 100
COc1nc(/C=C/C(=O)O)ccc1/C(=C(\c1ccccc1)C1CCC1)c1ccc2[nH]nc(F)c2c1 [Example 164, (E)-3-(5-((Z)-2-Cyclobutyl-1-(3-fluoro-1H-indazol-5-yl)-2-phenylvinyl)-6-methoxypyridin-2-yl)acrylic acid]	≥ 40	≤ 100	++ (++ = a single % value ≧ 40%)	≤ 100
COc1cc(/C(=C(\c2ccccc2)C2CCC2)c2ccc3[nH]nc(F)c3c2)cnc1/C=C/C(=O)O [Example 165, (E)-3-(5-((Z)-2-Cyclobutyl-1-(3-fluoro-1H-indazol-5-yl)-2-phenylvinyl)-3-methoxypyridin-2-yl)acrylic acid]	≥ 40	≤ 100	++ (++ = a single % value ≧ 40%)	> 100
O=C(O)/C=C/c1ccc(/C(=C(\c2ccccc2)C2CCC2)c2ccc3[nH]nc(F)c3c2)c(Cl)c1 [Example 166, (E)-3-(3-Chloro-4-((Z)-2-cyclobutyl-1-(3-fluoro-1H-indazol-5-yl)-2-phenylvinyl)phenyl)acrylic acid]	≥ 40	≤ 100	++ (++ = a single % value ≧ 40%)	≤ 100

— US9499538B2, “Estrogen receptor modulators and uses thereof” (Seragon Pharmaceuticals, Inc., priority 2012, dated 2016)
